The values below come from US9895344B2, “Treating various disorders with 7,8-dihydroxyflavone and derivatives thereof” (EMORY UNIVERSITY, priority 2008, dated 2018).

For assay [1], the target named is TrkB (Rattus norvegicus, UniProt Q63604). Briefly: TrkB activation in primary cortical neurons (p-TrkB Y817 immunoblotting). Type of assay: cell-based. Also on record: endogenous in cells; host or cells: primary cortical neurons. Conditions: FIG. 27 right. As for the experimental part: Primary cultured rat cortical neurons were prepared as follows. E17 rat pups were decapitated and cortex was extirpated, cross chopped, and suspended by pipetting for separation in 5% fetal calf serum (FCS), 5% horse serum (HS) DMEM. The cell suspension was then centrifuged at 250×g for 5 minutes. This operation was repeated again. Cells were seeded into polyethyleneimine-coated 10 cm^2 dishes and 12-well plates including coated-coverslips and incubated at 37° C. in 5% CO2/95% air. After 3 hours, the culture medium was changed to Neurobasal containing B-27 supplement (Invitrogen; Carlsbad, Calif.) and incubated for 4 days. For maintenance, half of the culture medium was changed to fresh Neurobasal/B27 every 4 days. After 1 week, the dished cultured neurons were ready for use.
Sequence of TrkB (Rattus norvegicus, UniProt Q63604) (Q63604 32-821): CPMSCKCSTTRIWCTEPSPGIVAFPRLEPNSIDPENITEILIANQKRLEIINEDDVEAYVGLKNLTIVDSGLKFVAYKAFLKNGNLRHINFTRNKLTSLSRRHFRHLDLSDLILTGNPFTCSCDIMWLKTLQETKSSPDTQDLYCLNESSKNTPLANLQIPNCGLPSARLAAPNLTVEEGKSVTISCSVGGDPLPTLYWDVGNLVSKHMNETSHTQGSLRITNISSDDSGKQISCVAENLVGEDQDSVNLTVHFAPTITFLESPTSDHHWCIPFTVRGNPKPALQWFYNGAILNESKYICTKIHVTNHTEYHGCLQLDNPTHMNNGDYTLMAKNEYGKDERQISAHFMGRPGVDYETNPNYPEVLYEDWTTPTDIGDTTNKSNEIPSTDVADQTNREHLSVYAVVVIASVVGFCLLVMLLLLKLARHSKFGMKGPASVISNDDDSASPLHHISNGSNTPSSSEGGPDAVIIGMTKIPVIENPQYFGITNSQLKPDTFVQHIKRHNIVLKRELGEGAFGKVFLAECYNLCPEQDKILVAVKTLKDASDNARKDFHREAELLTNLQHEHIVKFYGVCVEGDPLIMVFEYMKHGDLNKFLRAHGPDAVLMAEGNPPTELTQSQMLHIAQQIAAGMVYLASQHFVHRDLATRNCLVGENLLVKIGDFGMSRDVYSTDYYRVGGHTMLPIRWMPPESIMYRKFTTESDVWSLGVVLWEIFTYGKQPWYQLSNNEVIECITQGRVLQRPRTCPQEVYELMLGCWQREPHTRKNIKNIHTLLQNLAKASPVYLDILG
To compare the TrkB activation by the synthetic compounds of Examples 9 and 10 (see FIG. 26), primary cortical cultures were prepared. The cortical neurons were treated with 500 nM of various compounds for 30 min and collected the cell lysates. […] Replacing the H-bond acceptor O atom with hydrogen bond donor NH reduced its stimulatory effect. […] In comparison, 7,8-DHF provoked TrkB activation with the minimal concentration of 100 nM (FIG. 27, right panels).

The target of assay [2] is T1, TrkB (Mus musculus, UniProt P15209).
T1 construct: from tissue; host or cells: mouse brain
T1 sequence (P15209 32-821): as the sequence (Q63604 32-821) above, with M3T, T9S, T10A, I32V, K63R, G84S, T153M, I185L, T394S, N770S counted along it
Briefly: Trk activation in wild-type and TrkC knockout cortical neurons: TrkB. Type of assay: cell-based, mice. To be noted: FIG. 22. As for the experimental part: (§1) To further assess whether 7,8-dihydroxyflavone blocks neuronal apoptosis in a TrkB dependent manner, cortical neurons were prepared from homozygous pups of TrkC+/−mice, which were mated to the same genotype. […] Glutamate weakly stimulated both TrkA and TrkB faint phosphorylation regardless of TrkC genotype (FIG. 22, rows 1 and 3). The spontaneous caspase-3 activation in TrkC−/− neurons was suppressed by 7,8-dihydroxyflavone (FIG. 22, row 5).

For assay [3], the target named is T2, TrkB F616A (Mus musculus, UniProt P15209, F616A).
T2 construct: endogenous in cells; host or cells: cortical neurons of TrkB F616A knock-in mice
T2 sequence (P15209 32-821 F616A): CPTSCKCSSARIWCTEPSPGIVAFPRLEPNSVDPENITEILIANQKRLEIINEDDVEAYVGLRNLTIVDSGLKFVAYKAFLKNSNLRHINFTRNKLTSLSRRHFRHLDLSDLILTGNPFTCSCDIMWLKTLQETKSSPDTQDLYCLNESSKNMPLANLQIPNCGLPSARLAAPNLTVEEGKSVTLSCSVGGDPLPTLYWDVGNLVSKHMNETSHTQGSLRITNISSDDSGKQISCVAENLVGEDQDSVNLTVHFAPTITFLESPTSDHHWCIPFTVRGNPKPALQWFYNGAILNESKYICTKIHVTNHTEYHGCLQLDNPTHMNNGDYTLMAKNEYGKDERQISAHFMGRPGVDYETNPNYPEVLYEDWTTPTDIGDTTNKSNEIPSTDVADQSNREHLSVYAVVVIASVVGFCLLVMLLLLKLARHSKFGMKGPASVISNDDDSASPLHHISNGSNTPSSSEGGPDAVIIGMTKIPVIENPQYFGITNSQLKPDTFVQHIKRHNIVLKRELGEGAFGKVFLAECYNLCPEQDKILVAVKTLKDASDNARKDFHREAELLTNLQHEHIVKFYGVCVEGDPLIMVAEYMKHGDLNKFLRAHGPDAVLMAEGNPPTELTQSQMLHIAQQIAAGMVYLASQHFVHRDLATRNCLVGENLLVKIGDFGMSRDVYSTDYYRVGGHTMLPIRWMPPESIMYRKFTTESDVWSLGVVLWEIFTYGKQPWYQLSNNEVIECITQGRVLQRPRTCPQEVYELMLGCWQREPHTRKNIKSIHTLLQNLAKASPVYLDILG
The assay can be described thus: TrkB phosphorylation in cortical neurons from TrkB F616A knockin mice. Format: cell-based. Conditions: 0.5 μM, 30 minutes, FIG. 23. As for the experimental part:
To explore whether the neuroprotective action of 7,8-dihydroxyflavone is dependent on TrkB activation in vivo, TrkB F616A knockin mice were used. […] To further assess whether 7,8-dihydroxyflavone can mimic BDNF, cortical neurons were prepared from TrkB F616A knockin mice. The cortical neurons were pretreated for 30 minutes with either K252a Trk tyrosine kinase inhibitor (100 nM) or 1NMPP1 inhibitor (100 nM) followed by 0.5 μM 7,8-dihydroxyflavone for 30 minutes.

Assay [4] deals with progenitor proliferation in hippocampus. The assay can be described thus: Neurogenesis analysis in hippocampus (BrdU). Format: in vivo, C57BL/6J mice. Conditions: 5 mg/kg daily for 21 days, compared to vehicle control, FIGS. 32 and 33. As for the experimental part:
Adult male mice (2-3 months old) were orally injected with saline, 4′-DMA-7,8-DHF and 7,8-DHF (5 mg/kg) for 21 days. Then BrdU (50 mg/kg) was i.p. injected. In 2 hours, the mice were perfused with 4% paraformaldehyde. Immunohistochemical staining was performed on formalin-fixed paraffin-embedded sections. Sections from brain were cut, deparaffinized in xylene and rehydrated in graded alcohols. The slides were boiled in 10 mM citric acid (pH 6.0) for 10 minutes followed by an incubation in 2 N HCl for 10 minutes in room temperature. The slides were then permeabilized and blocked with 1% BSA in 0.2% PBST. The incorporated BrdU were stained using anti-BrdU-FITC (Abcam, Inc; Cambridge, Mass.) at 4° C. for 16 hours. After three washes in PBS, the cells were stained with DAPI for another 10 minutes at room temperature. The slides were mounted with AquaMount (Lerner Laboratories; Pittsburgh, Pa.) containing 0.01% 1,4-diazobicyclo(2,2,2)octane and examined under a fluorescence microscope.
To test whether increasing TrkB activation by 4′-dimethylamino-7,8-dihydroxyflavone would elevate neurogenesis, adult male C57BL/6J mice were injected daily for 21 days with either vehicle, 7,8-DHF, or 4′-DMA-7,8-DHF (5 mg/kg). At the end of treatment (day 21), the animals were injected with BrdU (50 mg/kg, i.p.) to label the dividing cells and were sacrificed 2 hours later. […]

The target of assay [5] is TrkA (Mus musculus, UniProt Q3UFB7). Briefly: Trk activation in wild-type and TrkC knockout cortical neurons: TrkA. Format: cell-based, mice. Set-up: from tissue; host or cells: mouse brain. To be noted: FIG. 22. As for the experimental part: as §1
Sequence of TrkA (Q3UFB7 34-799): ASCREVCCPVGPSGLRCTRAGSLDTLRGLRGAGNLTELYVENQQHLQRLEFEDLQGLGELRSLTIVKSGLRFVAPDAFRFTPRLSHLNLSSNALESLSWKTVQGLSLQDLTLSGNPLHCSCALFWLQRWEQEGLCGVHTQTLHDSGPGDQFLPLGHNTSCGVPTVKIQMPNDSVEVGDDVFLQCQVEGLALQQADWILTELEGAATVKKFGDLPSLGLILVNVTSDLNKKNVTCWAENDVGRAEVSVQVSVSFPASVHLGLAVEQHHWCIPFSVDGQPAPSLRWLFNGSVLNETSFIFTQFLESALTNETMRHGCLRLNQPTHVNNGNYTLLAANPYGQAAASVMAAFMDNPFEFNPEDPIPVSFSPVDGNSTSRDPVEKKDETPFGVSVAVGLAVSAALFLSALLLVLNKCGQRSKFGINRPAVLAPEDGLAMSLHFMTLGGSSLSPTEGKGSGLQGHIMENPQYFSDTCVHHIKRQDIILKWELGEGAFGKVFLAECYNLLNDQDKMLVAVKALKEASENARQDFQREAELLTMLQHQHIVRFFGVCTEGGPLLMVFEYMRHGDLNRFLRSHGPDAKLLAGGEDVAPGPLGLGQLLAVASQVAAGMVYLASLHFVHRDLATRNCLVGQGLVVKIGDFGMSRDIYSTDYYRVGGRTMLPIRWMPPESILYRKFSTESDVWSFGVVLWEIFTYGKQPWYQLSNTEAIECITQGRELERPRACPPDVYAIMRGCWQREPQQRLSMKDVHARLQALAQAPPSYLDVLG
The subject of assay [6] is immobility. Briefly: Forced swim test, 5 days intraperitoneal. Format: in vivo, mice. To be noted: intraperitoneally for 5 days; imipramine 20 mg/kg, amitryptyline 15 mg/kg, 7,8-dihydroxyflavone 5 mg/kg; FIG. 25.
Method: Adult male mice (2-3 months old, n=8) were randomly submitted, without a pre-swim, to a forced swim test of 6 minutes with immobility recorded in the last 4 minutes. Mice were injected intraperitoneally for 5 days with saline, imipramine (20 mg/kg), amitryptyline (15 mg/kg), or 7,8-dihydroxyflavone (5 mg/kg). The mice were allowed to adapt to the test room for 2 days, and the mice were placed in a clear glass cylinder with a diameter of 16 cm, half-filled with clear water at 24° C. […] Data are presented as mean±SEM; *p<0.05 against vehicle, **P<0.01 against vehicle and ***P<0.0001 against vehicle, student t-test.
Assay [7] concerns hippocampal neurons. The assay can be described thus: Glutamate-triggered apoptosis in hippocampal neurons. Format: cell-based. Conditions: pretreated 30 minutes, 50 μM glutamate for 16 hours, compared with BDNF, FIG. 6. As for the experimental part: To examine whether these compounds could promote neuronal survival, hippocampal neurons were prepared and the cultures were pretreated with various flavone derivatives for 30 minutes, followed by treatment with 50 μM glutamate for 16 hours.

In assay [8] the test system is KA-induced caspase-3 activation. Briefly: KA-induced neuronal cell death in TrkB F616A mice, oral TrkB agonists. Type of assay: in vivo, TrkB F616A knock-in mice. As for the experimental part:
TrkB F616A knockin mice (2-3 months old) were fed 1NMPP1 (25 μM) in drinking water one day before pharmacological reagent treatment. The next day, the mice were orally injected with 7,8-DHF or 4′-DMA-7,8-DHF (5 mg/kg) 4 hours before kainic acid (20 mg/kg). The control mice were injected with saline, 1NMPP1, kainic acid alone or administrated 7,8-DHF or 4′-DMA-7,8-DHF 4 hours before kainic acid. In 4 days, the mice were sacrificed and brains were homogenized and ultra-centrifuged. The supernatant (40 μg) was employed for SDS-PAGE and immunoblotting analysis with indicated antibodies, respectively.
To explore whether the neuroprotective effect of these small molecules is dependent on TrkB activation in vivo, TrkB F616A knock-in mice were used.

Structures are written as SMILES.

Regarding `O=c1cc(-c2ccccc2)oc2c(O)c(O)ccc12` [7,8-dihydroxyflavone], in assay [1], the “minimal concentration triggering TrkB activation (titration assay)” value is reported as 100 nM. In assay [2], the “TrkB activation in wild-type and TrkC knockout neurons” value is given as “provoked TrkB”. In addition, the “activation of TrkB F616A” value in assay [3] is “selectively activates TrkB F616A”. The “neurogenesis (BrdU)” value in assay [4] is “increased neurogenesis”. The “TrkA activation in wild-type and TrkC knockout neurons” value in assay [5] is on record as “not TrkA activation”. Moreover, the swimming immobility entry in assay [6] is given as “reduced the immobility”. For the same molecule, the “protection of hippocampal neurons from glutamate-induced apoptosis” value in assay [7] is “more protective effect on the neurons than did the positive control BDNF”. In addition, the “KA-caused caspase-3 activation” value in assay [8] (5 mg/kg orally 4 hours before kainic acid (20 mg/kg), FIG. 31) is on record as “markedly diminished”. In assay [8] (1NMPP1 (25 μM) in drinking water, FIG. 31 top), the “protective effect after 1NMPP1 pretreatment” value is given as “abolished”. Moreover, the “TrkB phosphorylation after 1NMPP1 pretreatment” value in assay [8] (FIG. 31, 2nd panel) was “notably blocked”.
